Reference: patent publication US20240150293A1, “SPIROCYCLOHEXANE DERIVATIVES, PHARMACEUTICAL COMPOSITIONS CONTAINING THEM AND THEIR USES AS ANTI-APOPTOTIC INHIBITORS” (LES LABORATOIRES SERVIER, priority 2021, published 2024)

Each compound was assayed against Mcl-1 protein (UniProtKB Q07820) (Homo sapiens (Human), UniProt Q07820) (assay: Inhibition of Mcl-1 by the fluorescence polarisation assay (Example A, Method A)). Settings: fluorescence polarization assay.
Assay type: binding
Procedure, shortened: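 Protein (5 nM) and fluorescein-tagged peptide tracer (1 nM) incubated with 11-point compound series for 2 h at room temperature in HEPES/NaCl/Tween 20 buffer, pH 7.4, 5% DMSO. Displacement read as decrease in polarisation; IC50 fitted by 4-parameter logistic, converted to Ki (cKi or eKi).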

Chain of Mcl-1 protein (Q07820 whole entry): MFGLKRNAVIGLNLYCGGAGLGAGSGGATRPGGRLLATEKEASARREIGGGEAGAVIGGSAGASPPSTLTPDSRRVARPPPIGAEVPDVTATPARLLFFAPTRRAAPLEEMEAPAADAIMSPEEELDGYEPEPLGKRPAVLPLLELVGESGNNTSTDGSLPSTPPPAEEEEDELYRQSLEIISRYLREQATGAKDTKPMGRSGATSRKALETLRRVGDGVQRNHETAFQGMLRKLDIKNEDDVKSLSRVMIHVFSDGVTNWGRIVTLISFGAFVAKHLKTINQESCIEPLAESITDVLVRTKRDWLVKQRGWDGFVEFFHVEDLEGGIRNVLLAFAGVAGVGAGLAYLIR

Compound	Ki [nM]
Cc1ccc(C2Cc3ccccc3[C@]23CC[C@@](Nc2cccc(Cl)c2)(C(=O)O)CC3)cc1 (single isomer, unassigned) [Example 307, (1r,4r)-4-(3-chloroanilino)-2′-(4-methylphenyl)-2′,3′-dihydrospiro[cyclohexane-1,1′-indene]-4-carboxylic acid]	9170
C/C=C/c1ccc2c(c1)[C@]1(CC[C@](Nc3cccc(Br)c3)(C(=O)O)CC1)C(=O)N2C [Example 12, (1r,4r)-4-(3-bromoanilino)-1′-methyl-2′-oxo-5′-[(1E)-prop-1-en-1-yl]-1′,2′-dihydrospiro[cyclohexane-1,3′-indole]-4-carboxylic acid]	12400
O=C(O)[C@]1(Nc2cccc(Cl)c2)CC[C@]2(CC1)C(C1CN(Cc3ccncc3)C1)=Cc1ccccc12 [Example 98, (1r,4r)-4-(3-chloroanilino)-2′-{1-[(pyridin-4-yl)methyl]azetidin-3-yl}spiro[cyclohexane-1,1′-indene]-4-carboxylic acid]	10400
COc1ccc(C2=Cc3ccccc3[C@]23CC[C@](Nc2cccc(Cl)c2)(C(=O)O)CC3)c(C)c1 [Example 228, (1r,4r)-4-(3-chloroanilino)-2′-(4-methoxy-2-methylphenyl)spiro[cyclohexane-1,1′-indene]-4-carboxylic acid]	14700
O=C(O)[C@]1(Nc2cccc(Cl)c2)CC[C@@]2(CC1)c1ccccc1CC2c1coc2ccccc12 (single isomer, unassigned) [Example 284, (1r,4r)-2′-(1-benzofuran-3-yl)-4-(3-chloroanilino)-2′,3′-dihydrospiro[cyclohexane-1,1′-indene]-4-carboxylic acid]	1220
O=C(O)[C@]1(Nc2cccc(Cl)c2)CC[C@]2(CC1)C(c1ccc3occc3c1)=Cc1ccccc12 [Example 247, (1s,4s)-2′-(1-benzofuran-5-yl)-4-(3-chloroanilino)spiro[cyclohexane-1,1′-indene]-4-carboxylic acid]	1220
COc1cc(OC)cc(C2=Cc3ccccc3[C@]23CC[C@@](Nc2cccc(Cl)c2)(C(=O)O)CC3)c1 [Example 308, (1s,4s)-4-(3-chloroanilino)-2′-(3,5-dimethoxyphenyl)spiro[cyclohexane-1,1′-indene]-4-carboxylic acid]	2930
O=C(O)[C@]1(Nc2cccc(Cl)c2)CC[C@]2(CC1)C(c1coc3ccccc13)=Cc1ccccc12 [Example 245, (1s,4s)-2′-(1-benzofuran-3-yl)-4-(3-chloroanilino)spiro[cyclohexane-1,1′-indene]-4-carboxylic acid]	4300
O=C(O)[C@]1(Nc2cccc(Br)c2)CC[C@@]2(CC1)C(=O)N(Cc1ccccc1)c1ccccc12 [Example 13, (1r,4r)-1′-benzyl-4-(3-bromoanilino)-2′-oxo-1′,2′-dihydrospiro[cyclohexane-1,3′-indole]-4-carboxylic acid]	7080
C#Cc1ccc2c(c1)[C@]1(CC[C@](Nc3cccc(Br)c3)(C(=O)O)CC1)C(=O)N2C [Example 18, (1r,4r)-4-(3-bromoanilino)-5′-ethynyl-1′-methyl-2′-oxo-1′,2′-dihydrospiro[cyclohexane-1,3′-indole]-4-carboxylic acid]	31900
COc1cccc([C@H]2Cc3ccccc3[C@]23CC[C@@](Nc2cccc(Br)c2)(C(=O)O)CC3)c1 [Example 220, (1r,2′R,4R)-4-(3-bromoanilino)-2′-(3-methoxyphenyl)-2′,3′-dihydrospiro[cyclohexane-1,1′-indene]-4-carboxylic acid]	7230
CN(CCc1ccccc1)C(=O)C1Cc2ccccc2[C@]12CC[C@@](Nc1cccc(Cl)c1)(C(=O)O)CC2 (single isomer, unassigned) [Example 407, (1r,4r)-4-(3-chloroanilino)-2′-[methyl(2-phenylethyl)carbamoyl]-2′,3′-dihydrospiro[cyclohexane-1,1′-indene]-4-carboxylic acid]	1370

These reach a lower Ki. Values come first.

Ki [nM]	Compound
124	Cc1cnccc1OC[C@H](C)CC1Cc2ccccc2[C@]12CC[C@@](Nc1cccc(Cl)c1)(C(=O)O)CC2 (stereo partly drawn) [Example 576, (1r,4R)-4-(3-chloroanilino)-2′-{(2R)-2-methyl-3-[(3-methylpyridin-4-yl)oxy]propyl}-2′,3′-dihydrospiro[cyclohexane-1,1′-indene]-4-carboxylic acid]
32.8	CC1CCc2nccc(OC[C@H](C)CC3Cc4ccccc4[C@]34CC[C@@](Nc3cccc(Cl)c3)(C(=O)O)CC4)c21 (single isomer, unassigned) [Example 601]
169	O=C(O)[C@]1(Nc2cccc(Cl)c2)CC[C@@]2(CC1)c1ccccc1CC2CCCOc1ccnc2c1CCC2F (stereo partly shown) [Example 476, (1r,4r)-4-(3-chloroanilino)-2′-{3-[(7-fluoro-6,7-dihydro-5H-cyclopenta[b]pyridin-4-yl)oxy]propyl}-2′,3′-dihydrospiro[cyclohexane-1,1′-indene]-4-carboxylic acid]
129	Cc1cc(OCCCC2Cc3ccccc3[C@]23CC[C@@](Nc2cccc(Cl)c2)(C(=O)O)CC3)ccn1 (stereo partly shown) [Example 457, (1r,4r)-4-(3-chloroanilino)-2′-{3-[(2-methylpyridin-4-yl)oxy]propyl}-2′,3′-dihydrospiro[cyclohexane-1,1′-indene]-4-carboxylic acid]
154	O=C(O)[C@]1(Nc2cccc(Cl)c2)CC[C@]2(CC1)C(CC(CO)COc1ccnc3ccsc13)=Cc1ccccc12 (stereo partly shown) [Example 491, (1r,4r)-4-(3-chloroanilino)-2′-{2-(hydroxymethyl)-3-[(thieno[3,2-b]pyridin-7-yl)oxy]propyl}spiro[cyclohexane-1,1′-indene]-4-carboxylic acid]
781	O=C(O)[C@]1(Nc2cccc(Cl)c2)CC[C@@]2(CC1)c1ccccc1CC2CCCOc1cncnc1 (stereo partly shown) [Example 450, (1r,4r)-4-(3-chloroanilino)-2′-{3-[(pyrimidin-5-yl)oxy]propyl}-2′,3′-dihydrospiro[cyclohexane-1,1′-indene]-4-carboxylic acid]
431	CN1C(=O)Cc2cc(OCCCC3Cc4ccccc4[C@]34CC[C@@](Nc3cccc(Cl)c3)(C(=O)O)CC4)ccc21 (stereo partly shown) [Example 480, (1r,4r)-4-(3-chloroanilino)-2′-{3-[(1-methyl-2-oxo-2,3-dihydro-1H-indol-5-yl)oxy]propyl}-2′,3′-dihydrospiro[cyclohexane-1,1′-indene]-4-carboxylic acid]
499	O=C(O)[C@]1(Nc2cccc(Cl)c2)CC[C@@]2(CC1)c1ccccc1CC2c1cccc2ccoc12 (single isomer, unassigned) [Example 293, (1r,4r)-2′-(1-benzofuran-7-yl)-4-(3-chloroanilino)-2′,3′-dihydrospiro[cyclohexane-1,1′-indene]-4-carboxylic acid]
473	O=C(O)[C@]1(Nc2cccc(Cl)c2)CC[C@@]2(CC1)c1ccccc1C[C@H]2c1ccc2occc2c1 [Example 281, (1r,2′S,4S)-2′-(1-benzofuran-5-yl)-4-(3-chloroanilino)-2′,3′-dihydrospiro[cyclohexane-1,1′-indene]-4-carboxylic acid]
544	O=C(O)[C@]1(Nc2cccc(Cl)c2)CC[C@]2(CC1)C(c1ccc(Oc3cccnc3)cc1)=Cc1ccccc12 [Example 351, (1s,4s)-4-(3-chloroanilino)-2′-{4-[(pyridin-3-yl)oxy]phenyl}spiro[cyclohexane-1,1′-indene]-4-carboxylic acid]
